Source: patent publication US8337792B2, “Aromatic imine compounds for use as sulfide scavengers” (priority 2007, dated 2012)

Columns and labels:
[1] = Comparison with conventional treatments against H2S dissolved in water (Table 2); conditions: 1,000 ppm H2S in water; for Lead acetate paper test, Head space / Lead acetate paper test, Liquid: paper colour
From the text: (§1) An overall comparison of the features of the present aromatic imine compounds and conventional compositions is shown in Table 3.

[2] = Solubility in water, oil, fuel and solvents; type: physicochemical
[3] = Comparison of features, performance and handling (Table 3)
From the text: as §1

[4] = Comparison of features, safety and hazard (Table 3)
From the text: as §1

Compound	Residual H2S, I2 Titration [1] [ppm]	Residual H2S, Outside Lab [1] [ppm]	Lead acetate paper test, Head space [1]	Lead acetate paper test, Liquid [1]	Oil Solubility [2]	Deodorizes [3]	Stable [3]	Strong bonding to H2S [3]	Reactivity* ([3]; 1 is highest)	Reactive at ambient temperature ([3]; ambient temperature)	Carcinogenicity [4]	Mutagenicity [4]	RCRA Hazardous Waste [4]	Safe to use [4]	Sensitizing chemical [4]	Toxicity [4]	Formaldehyde ([4]; formaldehyde in the product) [ppm]
O=CC=O [Glyoxal]	350	240	brown/	yellow/	no	no	no	no	1	yes	yes	yes	yes	some	yes	no	100
OCCN1CN(CCO)CN(CCO)C1 [Triazine]	660	728	yellow/	brown													
